≈ marks a conversion by molar mass, not a printed value. Entries after “also recorded” stand apart in the source; their conditions may differ. Like-named read-outs stand apart in the source and are kept apart here.
How the values were obtained:
[1] = shell ring, 58 mm × 9.5 mm; cited from earlier work
[2] = compiled from Novel Drug Delivery Systems (Chien); cited from earlier work
[3] = In vitro release from rings of varying core length and apparent/standard k value (Crank's equation); format: physicochemical; set-up: Standard k: unit not given here; settings: for k (using core of 141 mm length) / k (standard k): Table 5; for apparent k value versus core length: Table 3 rings; for apparent k value versus core length / k: 1% (w/v) BKC; for Mean Daily Release / Standard k: Table 4; for Mean Daily Release / Mean Daily Release (as precursor): n = 5; for k: in µg/day/mm; for Mean Daily Release (as precursor): 250 ml 1% (w/v) BKC
Source text: Precursor release from a cylindrical device of core design, which comprises a polymer matrix in the form of a core incorporating 17β-oestradiol precursor and a sheath surrounding the core, can be described by Crank's equation: [formula] in which R=precursor release rate (μg/day)
Crank's equation relates the precursor release rate (R), in sink conditions, to the solubility (C2 S) and diffusibility (D) of the precursor in the polymer matrix, its partition characteristics (π) between the polymer matrix and the dissolution medium; and the ring dimensions (l, b, a). For any given precursor in any given polymer matrix, CS, D and π will be constant and can be grouped together to form the composite constant, k:
The k value can be empirically derived using Crank's equation in the following manner: [formula]
The k value is dependent on core length for certain of the 17β-oestradiol precursors (see Example 6 hereinafter). Accordingly, the k value at a core length of 35 mm has been denoted "standard k" value hereinafter.
Intravaginal drug delivery devices in the form of rings were prepared, each with a ring geometry as described in Table 3, by following the General Method of Manufacture set out hereinabove.
The dissolution medium was changed daily, following the protocol set out hereinabove. Mean daily release rates from the second week of dissolution experiments were used to determine the apparent k values presented in Table 3.
It was, therefore, decided to determine k values at a core length of 35 mm and such k values are hereinafter referred to as "standard k" values.
The standard k value was determined from the mean daily release rates observed in Example 6. The dissolution medium of 1.0% (w/v) of an aqueous solution of benzalkonium chloride was used in respect of the various 17β-oestradiol precursors, so as to ensure sink conditions.

[4] = Aqueous solubility in distilled water at 20 °C; settings: for requisite aqueous solubility (not less than 1 μg per 100 ml): 20 °C
[5] = In vitro dissolution: mean daily release from full-length-core rings over up to 90 days in three media; format: physicochemical; set-up: key to Mean Daily Release: **: Not detected; settings: 9 × 54 mm ring, core 141 × 2 mm, 37 °C, N = 4
Source text: In all cases the ring geometries comprise a ring of dimensions 9 mm (cross-sectional diameter)×54 mm (outer diameter) and containing a full length core (141 mm) of cross-sectional diameter 2 mm. […] The saline and benzalkonium chloride-containing media were chosen to ensure `sink conditions` in at least one medium for each intravaginal ring. It will be recognised by those skilled in the art that the term `sink conditions` refers to that set of experimental conditions in vitro which effectively simulates the active haemoperfusion that occurs in vivo, and which results in a maximum drug concentration gradient and maximum drug diffusion rate, at any given time, across the aqueous boundary layer. Thus, an in vitro dissolution experiment can be designed such that the solution solubility of the released drug in the dissolution medium is much greater than its bulk concentration in this medium at any given time, for example, by micellar drug solubilisation due to incorporation of a surfactant such as benzalkonium chloride (BKC), at a concentration above its critical micelle concentration. Thus, each ring was suspended by a thread in an individual closed flask containing the dissolution medium, maintained at a constant temperature of 37° C. The contents of the flask were gently agitated in order to prevent the occurrence of a hydrostatic layer on the surface of the ring. After 24 hours, the ring was removed and suspended in a flask of fresh dissolution medium of identical volume by a method identical to that previously described.

[6] = physchem; settings: distilled water
[7] = Silicone solubility at 37 °C in Dow Corning 360 medical fluid; format: physicochemical; settings: organic solvent or mixture
Method: Silicone solubility was determined at 37° C. in Dow Corning (Trade Mark) 360 medical fluid.

[8] = Nominal in vitro daily release from intravaginal rings under sink conditions (1% w/v benzalkonium chloride, 37 °C); format: physicochemical; settings: "100 μg" ring, core 2×141 mm
Method: The nominal in vitro release rates set out in Table 1 for the rings of Examples 1-5 were determined under sink conditions of 1% (w/v) benzalkonium chloride. These release rates were determined in the following manner.
Each ring (n=4) was suspended in the dissolution medium in an individual flask which is then capped, placed in a suitable oven at 37° C. and shaken. The dissolution medium was changed every 24 hours (±30 minutes). An aliquot of the used dissolution medium was analysed by high performance liquid chromatography (HPLC) using reverse phase packing and UV detection (at 235 nm for 17β-oestradiol-3-acetate and for
. The sensitivity of the original and improved analytical methods is 5 μg/100 ml.

[9] = In vitro plasma hydrolysis (stability in human blood at 37 °C)
[10] = shell ring; cited from earlier work
[11] = cited from earlier work
[12] = 17β-oestradiol ring; EP 0 253 109 0.5 to 25 μg per day; Smith et al 5 to 10 μg per day; cited from earlier work
[13] = non-oral preparations, read-out: plasma levels of 17β-oestradiol, cited from earlier work
[14] = 1.0% (w/v) BKC, core length 35 mm
[15] = core length 35 mm, 1.0% (w/v) BKC

SMILES	k (using core of 141 mm length) [3] [μg/day/mm]	Mean Daily Release ([5]; 0.133% (w/v) BKC) [μg per day]	Mean Daily Release ([5]; 0.9% (w/v) saline)	Mean Daily Release ([5]; 1.0% (w/v) BKC) [μg per day]	Mean Daily Release [3, 14] [µg/day]	Standard k [3, 15]	k (standard k) ([3]; core length 35 mm) [μg/day/mm]	k ([3]; core length 35 mm)	Mean Daily Release (as precursor) ([3]; core length 35 mm) [µg/day]	k ([3]; core length 70 mm)	Mean Daily Release (as precursor) ([3]; core length 70 mm) [µg/day]	k ([3]; core length 140 mm)	Mean Daily Release (as precursor) ([3]; core length 140 mm) [µg/day]	other results
C#C[C@]1(O)CC[C@H]2[C@@H]3CCC4=CC(=O)CC[C@@H]4[C@H]3CC[C@@]21CC [levonorgestrel]														daily release [1]: 290 μg per day
C[C@]12CC[C@@H]3c4ccc(OC(=O)c5ccccc5)cc4CC[C@H]3[C@@H]1CC[C@@H]2O [reference compound]	0.70	42	< 5 μg per day	66										Silicone solubility [2]: 3.68 mg/100 ml; requisite aqueous solubility (not less than 1 μg per 100 ml) [4]: not possessing the requisite aqueous solubility
CCC(=O)O[C@H]1CC[C@H]2[C@@H]3CCc4cc(O)ccc4[C@H]3CC[C@]12C		112	26 μg per day	218	42.86	1.842	1.842	1.842	42.86	1.795	83.54	1.667	155.20	solubility [6]: 0.05 µg/mL (≈ 0.152 µM); apparent k value versus core length [3]: varies with core length; k ([3]; core length 17 mm): 2.130; Mean Daily Release (as precursor) ([3]; core length 17 mm): 24.08 µg/day
CC(=O)O[C@H]1CC[C@H]2[C@@H]3CCc4cc(O)ccc4[C@H]3CC[C@]12C			24 μg per day	96	19.50	0.838	0.838	0.8380	19.50	0.8797	40.94	0.9395	87.45	solubility ([7]; Dow Corning 360 medical fluid, 37 °C, read-out: Silicone solubility): 17 µg/mL (≈ 54.1 µM); apparent k value versus core length [3]: varies with core length; nominal in vitro daily release rate [8]: 100 µg; solubility ([4]; water): 0.12 µg/mL (≈ 0.382 µM); half-life [9]: 4 h
C[C@]12CC[C@@H]3c4ccc(O)cc4CC[C@H]3[C@@H]1CC[C@@H]2O [17β-oestradiol]	0.09		8 μg per day											in vitro release rate of 17β-oestradiol [10]: 200 μg per day; initial serum 17β-oestradiol level ([11]; homogeneous ring 400 mg, within one hour, 60 min): about 700 pg/ml; mean serum 17β-oestradiol ([11]; shell ring (100, 200 or 400 mg), one hour after insertion, 60 min): 300 pg/mL; mean serum 17β-oestradiol (in words) ([11]; shell ring, baseline 24 pg/ml): approached the baseline level of 24 pg/ml within 24 hours; also recorded: falling back to the baseline at 2 and 3 months; alleviation of symptoms of hypo-oestrogenism (in words) [12]: symptoms in the human female arising from a hypo-oestrogenic condition can be alleviated; also recorded: effective at alleviating those symptoms associated with hypo-oestrogenism that relate specifically to atrophy of vaginal and urethral epithelium; daily release [1]: 180 μg per day; concentration ([13]; transdermal 50 μg per day (low dose)): ~0.2 nM; concentration ([13]; transdermal 100 μg per day (high dose)): ~0.36 nM
CCC(=O)Oc1ccc2c(c1)CC[C@@H]1[C@@H]2CC[C@]2(C)[C@@H](O)CC[C@@H]12				1200	300.00	12.89	12.89	12.89	300.00	12.89	600.00	12.89	1200.00	solubility [6]: 2.3 µg/mL (≈ 7 µM); solubility [7]: 300 µg/mL (≈ 913 µM); Mean Daily Release ([3]; 0.9% (w/v) saline, core length 35 mm): 250 to 350 µg/day
CCCCC(=O)O[C@H]1CC[C@H]2[C@@H]3CCc4cc(O)ccc4[C@H]3CC[C@]12C [17β-oestradiol-17-valerate, reference compound]	5.86	365	**	550										Silicone solubility [2]: 15.02 mg/100 ml; requisite aqueous solubility (not less than 1 μg per 100 ml) [4]: too low; also recorded: not possessing the requisite aqueous solubility
